Experimental findings from patent publication US20120115842A1 (priority 2004, published 2012) are described below.

The term Ki denotes a dissociation constant, usually derived from enzyme kinetics or from competition with a known ligand.

This test addresses T1, human vasopressin V1b receptor (Homo sapiens, UniProt P47901).
T1 construct: expressed in transfected cells; host or cells: CHO-K1 (cell line hV1b-3H2_CHO), membranes
T1 sequence (P47901 1-424): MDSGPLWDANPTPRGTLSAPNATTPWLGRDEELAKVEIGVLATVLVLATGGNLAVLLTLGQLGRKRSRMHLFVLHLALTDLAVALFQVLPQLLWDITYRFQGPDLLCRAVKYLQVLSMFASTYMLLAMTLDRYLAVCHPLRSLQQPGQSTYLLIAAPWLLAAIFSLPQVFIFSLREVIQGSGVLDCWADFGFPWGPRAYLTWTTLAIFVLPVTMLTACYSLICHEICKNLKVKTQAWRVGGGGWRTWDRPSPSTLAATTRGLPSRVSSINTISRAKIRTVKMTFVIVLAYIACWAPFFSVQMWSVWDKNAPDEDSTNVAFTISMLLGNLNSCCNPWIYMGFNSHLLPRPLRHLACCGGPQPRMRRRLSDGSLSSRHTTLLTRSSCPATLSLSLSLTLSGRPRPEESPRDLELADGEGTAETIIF
The test is described as follows: Vasopressin V1b receptor binding assay (3H-AVP displacement). The conditions noted are these: for Ki: membranes from CHO-K1 cells with stably expressed human V1b receptors, 1.5 nM 3H-AVP, read-out: affinity constants (Ki) for the human vasopressin V1b receptor; for selectivity vis-a-vis V1b by comparison with V1a, V2 and/or OT: quotient of Ki values: Ki(V1a)/Ki(V1b), Ki(V2)/Ki(V1b) and/or Ki(OT)/Ki(V1b). As to the method: The test substances were dissolved in a concentration of 10^−2 M in DMSO and further diluted to 5×10^−4 M to 5×10^−9 M in DMSO. These DMSO solutions were diluted 1:10 with assay buffer. The substance concentration was again diluted 1:5 in the assay mixture.
CHO-K1 cells with stably expressed human vasopressin V1b receptor (clone 3H2) were harvested and homogenized in 50 mM Tris-HCl and in the presence of protease inhibitors (Roche complete Mini #1836170) with a Polytron homogenizer at a medium setting for 2×10 seconds and subsequently centrifuged at 40 000×g for 1 h. The membrane pellet was again homogenized and centrifuged as described and then taken up in 50 mM Tris-HCl, pH 7.4, homogenized and stored in aliquots frozen in liquid nitrogen at −190° C.
The binding assay was carried out by a method based on that of Tahara et al. (Tahara A et al., Brit. J. Pharmacol. 125, 1463-1470 (1998)). The incubation buffer was: 50 mM Tris, 10 mM MgCl2, 0.1% BSA, pH 7.4.
In the assay mixture (250 μl), membranes (50 μg/ml protein in incubation buffer) from CHO-K1 cells with stably expressed human V1b receptors (cell line hV1b—3H2_CHO) were incubated with 1.5 nM ^3H-AVP (8-Arg-vasopressin, PerkinElmer #18479) in incubation buffer (50 mM Tris, 10 mM MgCl2, 0.1% BSA, pH 7.4) (total binding) or additionally with increasing concentrations of test substance (displacement experiment). The nonspecific binding was determined with 1 uM AVP (Bachem # H1780). All determinations were carried out as triplicate determinations. After incubation (60 minutes at room temperature), the free radioligand was removed by vacuum filtration (Skatron cell harvester 7000) through Wathman G F/B glass fiber filter mats, and the filters were transferred into scintillation vials. The liquid scintillation measurement took place in a Tricarb model 2000 or 2200CA instrument (Packard). Conversion of the measured cpm into dpm was carried out with the aid of a standard quench series.
The binding parameters were calculated by nonlinear regression in SAS. The algorithms of the program operate in analogy to the LIGAND analysis program (Munson P J and Rodbard D, Analytical Biochem. 107, 220-239 (1980)). The Kd of ^3H-AVP for the recombinant […] receptors is 0.4 nM and was used to determine the Ki value.

Where only a bound is given, the exact number is not on record here.

For the molecule `COc1ccc(S(=O)(=O)N2C(=O)C(c3ccccc3OC)(N3CC(O)CC3C(=O)N(C)C)c3cc(C#N)ccc32)c(OC)c1` (single isomer, unassigned) [Example 1], the Ki was less than 100 nM and the “selectivity vis-a-vis V1b by comparison with V1a, V2 and/or OT” value (“selectivity vis-a-vis V1b by comparison” below) is “improved selectivity”.

As to `COc1ccc(S(=O)(=O)N2C(=O)C(c3ccccc3OC)(N(C)[C@@H](C)C(=O)N(C)C)c3cc(C#N)ccc32)cc1` (mixture of isomers) [Example 15], the Ki was less than 100 nM and the “selectivity vis-a-vis V1b by comparison” value is given as “improved selectivity”.

In the case of `COc1ccc(S(=O)(=O)N2C(=O)C(c3ccccc3OC)(N3C[C@H](O)C[C@H]3C(=O)N(C)C)c3cc(C#N)ccc32)cc1` (stereo partly drawn) [Example 19, (−)-(2S,4R)-1-[5-Cyano-1-(4-methoxybenzenesulfonyl)-3-(2-methoxyphenyl)-2-oxo-2,3-dihydro-1H-indol-3-yl]-4-hydroxypyrrolidine-2-dimethylcarboxamide], the Ki is less than 100 nM and the “selectivity vis-a-vis V1b by comparison” value is given as “improved selectivity”.

Take `COc1ccc(S(=O)(=O)N2C(=O)C(c3ccccc3OC)(N3CCC[C@H]3C(=O)N(C)C)c3cc(C#N)ccc32)cc1` (single isomer, unassigned; (+)) [Example 17b]: the Ki is less than 100 nM and the “selectivity vis-a-vis V1b by comparison” value is “improved selectivity”.

As for `COc1ccc(S(=O)(=O)N2C(=O)C(c3ccccc3OC)(N3CC(O)CC3C(=O)N(C)C)c3cc(C#N)ccc32)c(OC)c1` (single isomer, unassigned; (+)) [Example 16], the “selectivity vis-a-vis V1b by comparison” value was “improved selectivity”.
